The test system of data set [1] is human peripheral blood mononuclear cells (PBMC). Description: PBMC cytotoxicity assay (CellTiter-Glo). Format: cell-based. The conditions noted are these: 2 days, pCC50. How it is done:
(§1) Compounds of the present invention were tested via high-throughput cellular assays utilizing detection of kynurenine via mass spectrometry and cytotoxicity as end-points. For the mass spectrometry and cytotoxicity assays, human peripheral blood mononuclear cells (PBMC) (PB003F; AllCells®, Alameda, Calif.) were stimulated with human interferon-γ (IFN-γ) (Sigma-Aldrich Corporation, St. Louis, Mo.) and lipopolysaccharide from Salmonella minnesota (LPS) (Invivogen, San Diego, Calif.) to induce the expression of indoleamine 2, 3-dioxygenase (IDO1). Compounds with IDO1 inhibitory properties decreased the amount of kynurenine produced by the cells via the tryptophan catabolic pathway. Cellular toxicity due to the effect of compound treatment was measured using CellTiter-Glo® reagent (CTG) (Promega Corporation, Madison, Wis.), which is based on luminescent detection of ATP, an indicator of metabolically active cells.
(§2) In preparation for the assays, test compounds were serially diluted 3-fold in DMSO from a typical top concentration of 1 mM or 5 mM and plated at 0.5 μL in 384-well, polystyrene, clear bottom, tissue culture treated plates with lids (Greiner Bio-One, Kremsmünster, Austria) to generate 11-point dose response curves. Low control wells (0% kynurenine or 100% cytotoxicity) contained either 0.5 μL of DMSO in the presence of unstimulated (−IFN-γ/−LPS) PBMCs for the mass spectrometry assay or 0.5 μL of DMSO in the absence of cells for the cytotoxicity assay, and high control wells (100% kynurenine or 0% cytotoxicity) contained 0.5 μL of DMSO in the presence of stimulated (+IFN-γ/+LPS) PBMCs for both the mass spectrometry and cytotoxicity assays.
(§3) Frozen stocks of PBMCs were washed and recovered in RPMI 1640 medium (Thermo Fisher Scientific, Inc., Waltham, Mass.) supplemented with 10% v/v heat-inactivated fetal bovine serum (FBS) (Thermo Fisher Scientific, Inc., Waltham, Mass.), and 1× penicillin-streptomycin antibiotic solution (Thermo Fisher Scientific, Inc., Waltham, Mass.). The cells were diluted to 1,000,000 cells/mL in the supplemented RPMI 1640 medium. 50 μL of either the cell suspension, for the mass spectrometry assay, or medium alone, for the cytotoxicity assay, were added to the low control wells, on the previously prepared 384-well compound plates, resulting in 50,000 cells/well or 0 cells/well respectively. IFN-γ and LPS were added to the remaining cell suspension at final concentrations of 100 ng/ml and 50 ng/ml respectively, and 50 μL of the stimulated cells were added to all remaining wells on the 384-well compound plates. The plates, with lids, were then placed in a 37° C., 5% CO2 humidified incubator for 2 days.
(§4) Following incubation, the 384-well plates were removed from the incubator and allowed to equilibrate to room temperature for 30 minutes. For the cytotoxicity assay, CellTiter-Glo® was prepared according to the manufacturer's instructions, and 40 μL were added to each plate well. After a twenty minute incubation at room temperature, luminescence was read on an EnVision® Multilabel Reader (PerkinElmer Inc., Waltham, Mass.). For the mass spectrometry assay, 10 μL of supernatant from each well of the compound-treated plates were added to 40 μL of acetonitrile, containing 10 μM of an internal standard for normalization, in 384-well, polypropylene, V-bottom plates (Greiner Bio-One, Kremsmünster, Austria) to extract the organic analytes. Following centrifugation at 2000 rpm for 10 minutes, 10 μL from each well of the acetonitrile extraction plates were added to 90 μL of sterile, distilled H2O in 384-well, polypropylene, V-bottom plates for analysis of kynurenine and the internal standard on the RapidFire 300 (Agilent Technologies, Santa Clara, Calif.) and 4000 QTRAP MS (SCIEX, Framingham, Mass.). MS data were integrated using Agilent Technologies' RapidFire Integrator software, and data were normalized for analysis as a ratio of kynurenine to the internal standard. […]
In general terms: Cellular ATP, detected with luciferase, serves as a proxy for viable cell number.

The target of data set [2] is indoleamine 2, 3-dioxygenase (IDO1) (Homo sapiens, UniProt P14902). The experiment in a line: IDO1 PBMC RapidFire MS assay (kynurenine detection by mass spectrometry). The conditions noted are these: human PBMC stimulated with IFN-γ and LPS, 2 days, pIC50, read-out: PBMC PXC50 (converted). The format is cell-based. Also noted: to induce the expression of indoleamine 2, 3-dioxygenase (IDO1); host or cells: human PBMC stimulated with IFN-gamma and LPS. As to the method: IDO1 PBMC RapidFire MS Assay
as §1, §2, §3, §4

SMILES strings stand for the structures.

indoleamine 2, 3-dioxygenase (IDO1), sequence (P14902 whole entry): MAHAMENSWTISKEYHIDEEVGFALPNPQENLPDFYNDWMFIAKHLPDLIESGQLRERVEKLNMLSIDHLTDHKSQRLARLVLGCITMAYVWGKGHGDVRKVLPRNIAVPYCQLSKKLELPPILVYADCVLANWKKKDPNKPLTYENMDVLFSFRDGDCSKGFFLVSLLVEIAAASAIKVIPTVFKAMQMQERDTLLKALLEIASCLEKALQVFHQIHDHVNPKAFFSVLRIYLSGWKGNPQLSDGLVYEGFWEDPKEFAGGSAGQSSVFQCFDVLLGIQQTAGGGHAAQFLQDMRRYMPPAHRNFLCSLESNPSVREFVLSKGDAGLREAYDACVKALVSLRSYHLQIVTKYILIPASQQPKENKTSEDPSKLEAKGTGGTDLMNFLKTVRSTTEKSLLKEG

Regarding `CC(C)CN(c1ccc([C@H](C)CC(=O)O)cc1N(c1cnc(C(=O)O)nc1)c1cnc(C(=O)O)nc1)C1CCOCC1` [example 265, 5-({5-[(2R)-1-carboxypropan-2-yl]-2-[(2-methylpropyl)(oxan-4-yl)amino]phenyl}(2-carboxypyrimidin-5-yl)amino)pyrimidine-2-carboxylic acid], the “PBMC TOX PXC50” value in data set [1] is reported as <5. For the same compound, in data set [2], the IC50 was > 10000 nM.

With `CO[C@H]1CC[C@@H](N(CC(C)C)c2ccc([C@H](C)CC(=O)O)cc2Nc2ccc(Cl)cn2)CC1` [Example 47, (R)-3-(3-((5-chloropyridin-2-yl)amino)-4-(isobutyl((1s,4S)-4-methoxycyclohexyl)amino)phenyl)butanoic Acid], the “PBMC TOX PXC50” value in data set [1] is listed as <5. Besides, the IC50 in data set [2] is 0.794 nM.

Consider `CC(C)CN(c1ccc(C(C)NC(N)=O)cc1Nc1nc(C(F)(F)F)ns1)C1CCOCC1` (centres unmarked) [example 249, (1-{4-[(2-methylpropyl)(oxan-4-yl)amino]-3-{[3-(trifluoromethyl)-1,2,4-thiadiazol-5-yl]amino}phenyl}ethyl) urea], for which the “PBMC TOX PXC50” value in data set [1] is listed as <5. For the same compound, the IC50 in data set [2] was 20 nM.

With `COCc1nc(Nc2cc([C@H](C)CC(=O)O)ccc2N(CC(C)C)[C@H]2CC[C@@H](OC)CC2)n[nH]1` (racemic) [example 243, (3RS)-3-(3-{[5-(methoxymethyl)-1H-1,2,4-triazol-3-yl]amino}-4-[(2-methylpropyl)[(1rs&,4rs&)-4-methoxycyclohexyl]ami-no]phenyl)butanoic acid], the “PBMC TOX PXC50” value in data set [1] was <5. Further, the IC50 in data set [2] is 31.6 nM.

Turning to `CC(C)CN(c1ccc([C@H](C)CC(=O)O)cc1Nc1cnc(C(N)=O)cn1)C1CCOCC1` [example 264, (3R)-3-{3-[(5-carbamoylpyrazin-2-yl)amino]-4-[(2-methylpropyl)(oxan-4-yl)amino]phenyl}butanoic acid], the “PBMC TOX PXC50” value in data set [1] is <5. The IC50 in data set [2] is 79.4 nM.

On to `CC(C)CN(c1ccc([C@H](C)CC(=O)O)cc1Nc1ccc(C(F)(F)F)nn1)C1CCOCC1` [Example 18, (R)-3-(4-(isobutyl(tetrahydro-2H-pyran-4-yl)amino)-3-((6-(trifluoromethyl)pyridazin-3-yl)amino)phenyl)butanoic Acid], for which, in data set [1], the “PBMC TOX PXC50” value is on record as <5. Besides, the IC50 in data set [2] is 2 nM.

As to `CO[C@H]1CC[C@@H](N(CC(C)C)c2ccc([C@H](C)CC(=O)O)cc2Nc2nc(Cl)ns2)CC1` [Example 48, (R)-3-(3-((3-chloro-1,2,4-thiadiazol-5-yl)amino)-4-(isobutyl((1s,4S)-4-methoxycyclohexyl)amino)phenyl)butanoic Acid], in data set [1], the “PBMC TOX PXC50” value is reported as <5. For the same compound, the IC50 in data set [2] was 1 nM.

For the compound `COC(=O)c1c[nH]c(Nc2cc([C@H](C)CC(=O)O)ccc2N(CC(C)C)C2CCOCC2)n1` [Example 29, (R)-3-(4-(isobutyl(tetrahydro-2H-pyran-4-yl)amino)-3-((4-(methoxycarbonyl)-1H-imidazol-2-yl)amino)phenyl)butanoic acid], in data set [1], the “PBMC TOX PXC50” value is <5. Also, the IC50 in data set [2] is 6.31 nM.

For the compound `CC(C)CN(c1ccc([C@H](C)CC(=O)NS(C)(=O)=O)cc1Nc1nc(C(F)(F)F)ns1)C1CCOCC1` [Example 107, (R)-3-(4-(Isobutyl(tetrahydro-2H-pyran-4-yl)amino)-3-((3-(trifluoromethyl)-1,2,4-thiadiazol-5-yl)amino)phenyl)-N-(methylsulfonyl)butanamide], the “PBMC TOX PXC50” value in data set [1] was determined as 5.3. The IC50 in data set [2] was 6.31 nM.

In the case of `CC(C)CN(CC(C)C)c1ccc(C(C)CC(=O)O)cc1Nc1nnn(C(C)C)n1` (centres unmarked) [example 250, 3-{4-[bis(2-methylpropyl)amino]-3-{[2-(propan-2-yl)-2H-1,2,3,4-tetrazol-5-yl]amino}phenyl}butanoic acid], in data set [1], the “PBMC TOX PXC50” value is <5. For the same compound, the IC50 in data set [2] was 1260 nM.

In the case of `CC(C)CN(c1ccc([C@H](C)CC(=O)O)cc1Nc1n[nH]c(C(F)(F)F)n1)C1CCOCC1` [Example 32, (R)-3-(4-(Isobutyl(tetrahydro-2H-pyran-4-yl)amino)-3-((5-(trifluoromethyl)-1H-1,2,4-triazol-3-yl)amino)phenyl)butanoic Acid], the “PBMC TOX PXC50” value in data set [1] was <5. Further, the IC50 in data set [2] was 10 nM.

With `CONC(=O)C[C@@H](C)c1ccc(N(CC(C)C)C2CCOCC2)c(Nc2nc(C(F)(F)F)ns2)c1` [Example 106, (R)-3-(4-(Isobutyl(tetrahydro-2H-pyran-4-yl)amino)-3-((3-(trifluoromethyl)-1,2,4-thiadiazol-5-yl)amino)phenyl)-N-methoxybutanamide], the “PBMC TOX PXC50” value in data set [1] is given as <5. The IC50 in data set [2] was 6.31 nM.

For `CC(C)CN(CC(C)C)c1ccc([C@H](C)CC(=O)O)cc1Nc1n[nH]c(C(F)(F)F)n1` [Example 86, (R)-3-(4-(diisobutylamino)-3-((5-(trifluoromethyI)-1H-1,2,4-triazol-3-yl)amino)phenyl)butanoic Acid], the “PBMC TOX PXC50” value in data set [1] is reported as <5. Further, the IC50 in data set [2] is 3.98 nM.

With `CC(C)CN(c1ccc([C@H](C)CC(=O)O)cc1Nc1n[nH]c(C#N)n1)[C@H]1CC[C@H](O)CC1` (racemic) [example 224, (3RS)-3-{3-[(5-cyano-1H-1,2,4-triazol-3-yl)amino]-4-[(2-methylpropyl)[(1rs&,4rs&)-4-hydroxycyclohexyl]amino]phenyl}butanoic acid], the “PBMC TOX PXC50” value in data set [1] was <5. In data set [2], the IC50 is 1580 nM.

As for `CC(C)CN(c1ccc(-c2ccncc2C(=O)O)cc1Nc1nc(C(F)(F)F)ns1)C1CCOCC1` [example 267, 4-{4-[(2-methylpropyl)(oxan-4-yl)amino]-3-{[3-(trifluoromethyl)-1,2,4-thiadiazol-5-yl]amino}phenyl}pyridine-3-carboxylic acid], the “PBMC TOX PXC50” value in data set [1] is <5. Also, the IC50 in data set [2] is 39.8 nM.

Turning to `CC(C)CN(c1c(F)cc([C@H](C)CC(=O)O)cc1Nc1ccc(Cl)cn1)C1CCOCC1` [Example 35, (R)-3-(3-((5-chloropyridin-2-yl)amino)-5-fluoro-4-(isobutyl(tetrahydro-2H-pyran-4-yl)amino)phenyl)butanoic Acid], the “PBMC TOX PXC50” value in data set [1] is reported as <5. In addition, the IC50 in data set [2] was 0.501 nM.

Turning to `COCc1ccc(Nc2cc([C@H](C)CC(=O)O)ccc2N(CC(C)C)[C@H]2CC[C@H](OC)CC2)nc1` (racemic) [example 247, (3RS)-3-(3-{[5-(methoxymethyl)pyridin-2-yl]amino}-4-[(2-methylpropyl)[(1rs&,4rs&)-4-methoxycyclohexyl]ami-no]phenyl)butanoic acid], the “PBMC TOX PXC50” value in data set [1] is <5. For the same compound, the IC50 in data set [2] is 31.6 nM.

With `CC(C)CN(c1ccc([C@H](C)CC(=O)O)cc1Nc1ncc(C#N)cn1)C1CCOCC1` [example 254, (3R)-3-{3-[(5-cyanopyrimidin-2-yl)amino]-4-[(2-methylpropyl)(oxan-4-yl)amino]phenyl}butanoic acid], the “PBMC TOX PXC50” value in data set [1] is reported as <5. Further, in data set [2], the IC50 was 126 nM.

Turning to `Cc1nc(Nc2cc([C@H](C)CC(=O)O)ccc2N(CC(C)C)C2CCOCC2)ccc1Cl` [example 260, (3R)-3-{3-[(5-chloro-6-methylpyridin-2-yl)amino]-4-[(2-methylpropyl)(oxan-4-yl)amino]phenyl}butanoic acid], the “PBMC TOX PXC50” value in data set [1] is listed as <5. Besides, the IC50 in data set [2] was 39.8 nM.
